Data on four compounds can be found in patent US11471465B2 (priority 2017, dated 2022).

Read-outs that look alike come from different tables or passages of the source.

The procedure of data set [1]: The effect of varying amounts of potassium carbonate (K2CO3) and sodium bicarbonate (NaHCO3) on the pH of acidic media was tested. The acidic media was chosen to simulate gastric conditions. K2CO3 or NaHCO3 was added to 50 mL of a 0.01 N HCl solution (pH 2). The pH of the solution was measured after addition of the K2CO3 or NaHCO3. Deionized water (240 mL) was then added to the mixture and pH was measured again.

Data set [2] in a line: Dissolution testing of the monolayer meloxicam/rizatriptan tablet in 0.01 N HCl, Example 4. The format is physicochemical. The following applies: monolayer tablet of Example 4, 0.01 N HCl, 75 RPM, 37° C.
Protocol: Dissolution testing of the tablets in acidic medium (chosen to simulate gastric conditions) was performed by placing the tablets in a 0.01 N HCl solution, at an agitation rate of 75 RPM, and vessel temperature of approximately 37° C.
For data set [3] the following is noted: cited from earlier work.
Data set [4] deals with moderate and severe migraine. Kind of data set: Phase 3 placebo- and active-controlled trial (MOMENTUM), patients with inadequate response to prior acute treatments, Example 11.
[5] abbreviates: from 2 hours to 24 hours after dosing.

As to `O=C([O-])[O-].[K+].[K+]` [Tablet K2CO3, potassium carbonate], the pH in data set [1] (25 mg K2CO3 added to 50 mL 0.01 N HCl) is given as 2.84; in data set [1] (35 mg K2CO3 added to 50 mL 0.01 N HCl), 6.29; in data set [1] (45 mg K2CO3 added to 50 mL 0.01 N HCl) it was 8.05; in data set [1] (50 mg K2CO3 added to 50 mL 0.01 N HCl) it was 8.29; in data set [1] (100 mg K2CO3 added to 50 mL 0.01 N HCl), 9.43; in data set [1] (200 mg K2CO3, 0.01 N HCl + 240 mL water) it was 10.27. For the same compound, the pH worked out at 10.14 in data set [1] (200 mg K2CO3 added to 50 mL 0.01 N HCl); 10.46 in data set [1] (300 mg K2CO3, 0.01 N HCl + 240 mL water); 10.39 in data set [1] (300 mg K2CO3 added to 50 mL 0.01 N HCl); 10.57 in data set [1] (400 mg K2CO3, 0.01 N HCl + 240 mL water); 10.55 in data set [1] (400 mg K2CO3 added to 50 mL 0.01 N HCl); 10.63 in data set [1] (450 mg K2CO3, 0.01 N HCl + 240 mL water). For the same compound, the pH in data set [1] (450 mg K2CO3 added to 50 mL 0.01 N HCl) was 10.58.
As to `Cc1cnc(NC(=O)C2=C(O)c3ccccc3S(=O)(=O)N2C)s1` [Meloxicam], the percent dissolved amounted to 0% in data set [2] (0 min); 79% in data set [2] (15 min); 92% in data set [2] (30 min); 93% in data set [2] (45 min); 93% in data set [2] (60 min); 93% in data set [2] (90 min). In data set [2] (120 min), this compound gave a percent dissolved of 94%. In addition, the AUC0-24 of meloxicam entry in data set [3] (15 mg IV and intramuscular doses, human beings) is “about 27 μg·hr/mL”. Moreover, the figures for the “reported Tmax” value in data set [3] (intramuscular), in data set [3] (intravenous bolus) and in data set [3] (intravenous infusion) were 60 to 84 min, approximately 3 min and “approximately 30 minutes”, respectively.
In the case of `O=C([O-])O.[Na+]` [NaHCO3, sodium bicarbonate], the pH was 5.41 in data set [1] (200 mg NaHCO3, 0.01 N HCl + 240 mL water); 5.28 in data set [1] (200 mg NaHCO3 added to 50 mL 0.01 N HCl); 5.89 in data set [1] (300 mg NaHCO3, 0.01 N HCl + 240 mL water); 5.90 in data set [1] (300 mg NaHCO3 added to 50 mL 0.01 N HCl); 6.11 in data set [1] (400 mg NaHCO3, 0.01 N HCl + 240 mL water); 6.44 in data set [1] (400 mg NaHCO3 added to 50 mL 0.01 N HCl). Moreover, the pH in data set [1] (450 mg NaHCO3, 0.01 N HCl + 240 mL water) stood at 6.46; in data set [1] (450 mg NaHCO3 added to 50 mL 0.01 N HCl), 6.86; in data set [1] (500 mg NaHCO3, 0.01 N HCl + 240 mL water) it was 8.33; in data set [1] (500 mg NaHCO3 added to 50 mL 0.01 N HCl), 8.23; in data set [1] (750 mg NaHCO3, 0.01 N HCl + 240 mL water), 8.54; in data set [1] (750 mg NaHCO3 added to 50 mL 0.01 N HCl) it was 8.30. In addition, the pH was found to be 8.60 in data set [1] (1000 mg NaHCO3, 0.01 N HCl + 240 mL water) and 8.36 in data set [1] (1000 mg NaHCO3 added to 50 mL 0.01 N HCl).
In data set [2] (0 min), Rizatriptan yielded a percent dissolved of 0%. This compound also showed a percent dissolved in data set [2] (15 min) of 89%. The compound also registered a percent dissolved in data set [2] (30 min) of 102%. In data set [2] (45 min), this compound displayed a percent dissolved of 103%. For the same compound, in data set [2] (60 min), the percent dissolved is 103%. This compound also came in with a percent dissolved in data set [2] (90 min) of 103%. In data set [2] (120 min), this compound yielded a percent dissolved of 103%. Besides, in data set [4] (48-hour period after dosing), the “patients experiencing relapse of pain” value is on record as 45.2%. The “probability of experiencing pain relief” value in data set [4] (24 hours after taking) was “approximately 60%”. Moreover, the “proportion of patients experiencing pain relief” value in data set [4] ([…] after dosing) worked out at 52.5%. For the same compound, in data set [4] (setting [5]), the “percentage of patients achieving sustained pain freedom” value worked out at 11.2% and the “percentage of patients experiencing sustained pain relief” value is 43.9%. Also, in data set [4] (from 2 hours to 48 hours), the “percentage of patients experiencing sustained pain freedom” value came out at 8.8% and the “percentage of patients experiencing sustained pain relief” value is 36.5%. Further, in data set [4] (human, in vivo), the “median time to pain relief” value turned out to be 4 h. In addition, in data set [4] (single dose), the “Any Treatment-Emergent Adverse Event, % of subjects” value is recorded as “(15.4%)”; the “Any Treatment-Emergent Adverse Event, number of subjects” value is 67; the “Dizziness, % of subjects” value is “(2.1%)”; the “Dizziness, number of subjects” value is recorded as 9. Further, in data set [4] (single dose), the “Nausea, % of subjects” value is “(4.8%)”; the “Nausea, number of subjects” value is listed as 21; the “Somnolence, % of subjects” value was “(2.1%)”; the “Somnolence, number of subjects” value was determined as 9. Besides, the “patients who used rescue medication” value in data set [4] (through hour 24 post dose) is given as 34.7%.
